Reference: patent publication US12534762B2, “Treating atopic dermatitis by targeting the WNT pathway” (Children's Medical Center Corporation, priority 2018, dated 2026)

Legend:
[1] = test system: animal pole explants of Xenopus embryos; test: Neural induction assay by Noggin in animal pole explants (RT-PCR); set-up: species or system Xenopus laevis; conditions: co-injected with Tmem79MO
Method: (§1) mRNA and Morpholino injection. For animal cap assays, indicated mRNAs (Tmem79, 100 and 200 pg; Xwnt8, 10 pg; β-catenin 50 pg; Xnr1, 250 pg; BMP4, 100 pg) were injected into the animal pole at 4-cell stage, and animal caps were dissected at stage 9 (in the case of Xwnt8, Xnr1, BMP4) or at stage 8.5 and treated with recombinant proteins (bFGF, 100 ng/ml; hShh, 1.5 ng/mL) until stage 10 before RT-PCR. For Neural induction assay the MO (20 ng) for Tmem79, Usp8 or β-catenin was injected into the animal pole at 4-cell stage, and animal caps were dissected at stage 9 and treated with recombinant protein Noggin (500 ng/mL) until stage 18 before RT-PCR. To examine Tmem79 and Usp8 MOs specificity, […] of mRNA of Xenopus Tmem79, mouse Tmem79, Xenopus Usp8 or xmutUsp8 (Xenopus Usp8 mutated for mismatches with the MO) were injected with a control MO, Tmem79 MO or Usp8 MO (20 ng) into the animal pole at the 2-cell stage and cultured til stage 10 for Western blotting. To knockdown the endogenous xTmem79 or xUsp8, 20 ng of control MO, Tmem79 MO or Usp8 MO were injected into two dorso-animal blastomeres at the 8-cell stage and the phenotype was scored at stage 35. To rescue the Tmem79 MO phenotype, […] of mTmem 79, 20 ng of Usp8 MO or 10 ng of β-catenin MO was injected together with Tmem79 MO (20 ng). RT-PCR primers and Morpholinos. […]

Xenopus embryos = test: MO specificity, Western blotting of protein synthesis from co-injected mRNA; type: in vivo, Xenopus laevis; conditions: stage 10
Method: as §1

Usp8 MO: morpholino against Xenopus Usp8, SEQ ID NO: 26 (antisense GCTGCAAATTCTCCTCTCTTATCAA; all phosphorodiamidate morpholino (PMO); listed as Xenopus laevis)
neural induction by Noggin abolished by Tmem79MO: effect of co-injection [1]: rescued
protein synthesis from the Xenopus Usp8 (xUsp8) mRNA (Xenopus embryos): inhibited
